One data set concerns the target Histamine, H2 (Homo sapiens, UniProt P25021). Briefly: Receptor selectivity binding comparison: Histamine H2. The note with it: 1.0E−6.
In the next data set the test system is male Wistar rats. Briefly: Sleep-wakefulness, locomotor activity and body temperature monitoring (SCORE-2000). It counts as in vivo, rat. The settings on record: for sleep continuity, as assessed by sleep bout length: 10 mg/kg PO at CT-18, male Wistar rats; for total sleep time post-treatment: 10 mg/kg PO at CT-18, versus methylcellulose vehicle; for body temperature adverse effects / disproportional locomotor inhibition: rats.

Data set [1] concerns the target Norepinephrine Transporter (Homo sapiens, UniProt P23975). The data set can be described thus: Receptor selectivity binding comparison: Norepinephrine Transporter. The note with it: 1.0E−6.
Data set [2] deals with T1, human recombinant M1 muscarinic receptor expressed in CHO cells (Homo sapiens, UniProt P11229).
T1 construct: expressed in transfected cells; host or cells: CHO cells
T1 sequence (P11229 1-460): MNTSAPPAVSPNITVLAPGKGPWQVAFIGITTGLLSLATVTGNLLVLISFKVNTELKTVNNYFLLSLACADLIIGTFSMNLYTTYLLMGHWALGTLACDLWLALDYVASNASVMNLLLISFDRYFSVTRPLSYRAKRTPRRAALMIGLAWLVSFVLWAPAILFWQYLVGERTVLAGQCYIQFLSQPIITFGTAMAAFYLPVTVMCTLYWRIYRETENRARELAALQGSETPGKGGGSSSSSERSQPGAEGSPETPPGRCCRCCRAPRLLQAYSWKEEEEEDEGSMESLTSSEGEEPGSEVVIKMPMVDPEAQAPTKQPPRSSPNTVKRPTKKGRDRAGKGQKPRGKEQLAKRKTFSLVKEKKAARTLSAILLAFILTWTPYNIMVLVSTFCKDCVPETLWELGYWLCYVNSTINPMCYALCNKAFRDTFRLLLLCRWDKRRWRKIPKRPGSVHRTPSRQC
Briefly: M1 binding assay (human recombinant), [3H]-scopolamine N-methyl chloride. The note with it: for Ki: Examples 15-17, unit inferred, read-out: binding affinity for cholinergic (muscarinic) receptor M1.

Data set [3] deals with cloned hERG channels expressed in HEK293 cells (Homo sapiens, UniProt Q12809). Briefly: hERG block comparative study, whole cell recording. The note with it: table title 1.0E−6. (In general: Block of hERG is tested as a sign of cardiac risk.)
Data set [4] addresses T2, human recombinant M2 muscarinic receptor expressed in CHO cells (Homo sapiens, UniProt P08172).
T2 construct: expressed in transfected cells; host or cells: CHO cells
T2 sequence (P08172 1-466): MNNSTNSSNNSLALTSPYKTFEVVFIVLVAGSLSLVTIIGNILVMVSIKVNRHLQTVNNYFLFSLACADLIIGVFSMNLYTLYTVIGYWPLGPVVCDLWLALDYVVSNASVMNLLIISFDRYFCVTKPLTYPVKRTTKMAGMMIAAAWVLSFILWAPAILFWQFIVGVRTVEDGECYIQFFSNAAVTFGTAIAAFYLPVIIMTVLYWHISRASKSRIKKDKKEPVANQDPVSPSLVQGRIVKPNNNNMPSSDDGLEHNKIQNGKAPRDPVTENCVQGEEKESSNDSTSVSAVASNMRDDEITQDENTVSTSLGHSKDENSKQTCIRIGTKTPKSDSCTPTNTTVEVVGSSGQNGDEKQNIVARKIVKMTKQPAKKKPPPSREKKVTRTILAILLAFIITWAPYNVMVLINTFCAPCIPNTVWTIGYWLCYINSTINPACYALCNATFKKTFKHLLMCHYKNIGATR
Briefly: M2 binding assay (human recombinant). The note with it: for Ki: Examples 15-17, unit inferred, read-out: binding affinity for cholinergic (muscarinic) receptor M2.

Data set [5] relates to M3 receptor from guinea pig ileum membranes. The settings on record: read-out: Ki of reference compounds, M3 binding assay; cited from earlier work.
The target of data set [6] is T3, M2 receptor from rat cardiac membranes (Rattus norvegicus, UniProt P10980).
T3 construct: the M2 receptor was from rat cardiac membranes; from tissue; host or cells: rat cardiac membranes
T3 sequence (P10980 1-466): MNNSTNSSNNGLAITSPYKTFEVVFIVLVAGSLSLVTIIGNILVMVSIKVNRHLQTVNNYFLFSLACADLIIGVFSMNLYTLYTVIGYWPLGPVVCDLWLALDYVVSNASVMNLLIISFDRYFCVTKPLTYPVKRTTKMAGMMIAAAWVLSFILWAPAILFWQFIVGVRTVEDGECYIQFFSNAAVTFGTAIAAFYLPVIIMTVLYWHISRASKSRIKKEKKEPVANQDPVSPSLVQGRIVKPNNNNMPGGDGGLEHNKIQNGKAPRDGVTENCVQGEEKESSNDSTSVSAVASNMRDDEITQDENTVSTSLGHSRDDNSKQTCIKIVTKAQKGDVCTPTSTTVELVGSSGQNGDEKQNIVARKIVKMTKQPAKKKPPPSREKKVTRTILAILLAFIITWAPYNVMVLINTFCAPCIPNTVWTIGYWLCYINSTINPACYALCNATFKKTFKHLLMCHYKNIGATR
The note with it: read-out: Ki of reference compounds, M2 binding assay; cited from earlier work.

Data set [7] has as its target T1, human recombinant M1 muscarinic receptor expressed in CHO cells. The settings on record: read-out: Ki of reference compounds, M1 binding assay; cited from earlier work.
The target of data set [8] is T4, H1 receptor from bovine cellular membranes (Bos taurus, UniProt P30546).
T4 construct: the H1 receptor was from bovine cellular membranes; from tissue
The data set can be described thus: H1 binding assay, [3H]pyrilamine displacement. The note with it: Examples 15-17; read-out: Ki, H1 binding assay.

Data set [9] addresses T5, human recombinant M3 muscarinic receptor expressed in CHO cells (Homo sapiens, UniProt P20309).
T5 construct: expressed in transfected cells; host or cells: CHO cells
The data set can be described thus: M3 binding assay (human recombinant). The note with it: Examples 15-17; unit inferred; read-out: binding affinity for cholinergic (muscarinic) receptor M3.

Several values for one entry are separate records, joined by “and”; a condition that tells them apart may be missing. Equal values may be shown once. Where a name gives a salt, the structure may show the parent alone. Read-outs that look alike come from different tables or passages of the source. Marks after values point to notes of the source that are not given here.

T4 sequence (P30546 whole entry): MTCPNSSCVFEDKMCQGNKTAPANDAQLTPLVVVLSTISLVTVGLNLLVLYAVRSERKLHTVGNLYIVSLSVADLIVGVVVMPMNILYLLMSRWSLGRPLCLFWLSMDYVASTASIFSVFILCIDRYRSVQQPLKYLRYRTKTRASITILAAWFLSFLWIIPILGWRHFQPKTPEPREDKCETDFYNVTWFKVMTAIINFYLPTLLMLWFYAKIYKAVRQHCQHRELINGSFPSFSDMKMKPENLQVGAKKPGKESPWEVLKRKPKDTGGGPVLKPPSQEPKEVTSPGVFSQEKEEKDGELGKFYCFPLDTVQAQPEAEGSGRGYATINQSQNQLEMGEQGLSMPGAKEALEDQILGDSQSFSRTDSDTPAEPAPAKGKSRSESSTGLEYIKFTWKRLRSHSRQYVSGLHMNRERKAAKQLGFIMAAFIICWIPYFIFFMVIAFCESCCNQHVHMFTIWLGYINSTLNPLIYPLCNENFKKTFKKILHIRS
Histamine, H2, sequence (P25021 whole entry): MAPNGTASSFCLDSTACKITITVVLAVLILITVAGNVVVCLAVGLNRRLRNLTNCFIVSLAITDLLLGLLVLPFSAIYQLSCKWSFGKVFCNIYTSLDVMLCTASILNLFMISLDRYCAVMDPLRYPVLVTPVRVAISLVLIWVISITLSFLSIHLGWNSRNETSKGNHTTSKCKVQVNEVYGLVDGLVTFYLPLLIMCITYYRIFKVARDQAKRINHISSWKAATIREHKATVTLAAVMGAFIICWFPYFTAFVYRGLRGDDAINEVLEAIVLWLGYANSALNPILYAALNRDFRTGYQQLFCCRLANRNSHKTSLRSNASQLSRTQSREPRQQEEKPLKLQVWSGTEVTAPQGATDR
cloned hERG channels expressed in HEK293 cells, sequence (Q12809 whole entry): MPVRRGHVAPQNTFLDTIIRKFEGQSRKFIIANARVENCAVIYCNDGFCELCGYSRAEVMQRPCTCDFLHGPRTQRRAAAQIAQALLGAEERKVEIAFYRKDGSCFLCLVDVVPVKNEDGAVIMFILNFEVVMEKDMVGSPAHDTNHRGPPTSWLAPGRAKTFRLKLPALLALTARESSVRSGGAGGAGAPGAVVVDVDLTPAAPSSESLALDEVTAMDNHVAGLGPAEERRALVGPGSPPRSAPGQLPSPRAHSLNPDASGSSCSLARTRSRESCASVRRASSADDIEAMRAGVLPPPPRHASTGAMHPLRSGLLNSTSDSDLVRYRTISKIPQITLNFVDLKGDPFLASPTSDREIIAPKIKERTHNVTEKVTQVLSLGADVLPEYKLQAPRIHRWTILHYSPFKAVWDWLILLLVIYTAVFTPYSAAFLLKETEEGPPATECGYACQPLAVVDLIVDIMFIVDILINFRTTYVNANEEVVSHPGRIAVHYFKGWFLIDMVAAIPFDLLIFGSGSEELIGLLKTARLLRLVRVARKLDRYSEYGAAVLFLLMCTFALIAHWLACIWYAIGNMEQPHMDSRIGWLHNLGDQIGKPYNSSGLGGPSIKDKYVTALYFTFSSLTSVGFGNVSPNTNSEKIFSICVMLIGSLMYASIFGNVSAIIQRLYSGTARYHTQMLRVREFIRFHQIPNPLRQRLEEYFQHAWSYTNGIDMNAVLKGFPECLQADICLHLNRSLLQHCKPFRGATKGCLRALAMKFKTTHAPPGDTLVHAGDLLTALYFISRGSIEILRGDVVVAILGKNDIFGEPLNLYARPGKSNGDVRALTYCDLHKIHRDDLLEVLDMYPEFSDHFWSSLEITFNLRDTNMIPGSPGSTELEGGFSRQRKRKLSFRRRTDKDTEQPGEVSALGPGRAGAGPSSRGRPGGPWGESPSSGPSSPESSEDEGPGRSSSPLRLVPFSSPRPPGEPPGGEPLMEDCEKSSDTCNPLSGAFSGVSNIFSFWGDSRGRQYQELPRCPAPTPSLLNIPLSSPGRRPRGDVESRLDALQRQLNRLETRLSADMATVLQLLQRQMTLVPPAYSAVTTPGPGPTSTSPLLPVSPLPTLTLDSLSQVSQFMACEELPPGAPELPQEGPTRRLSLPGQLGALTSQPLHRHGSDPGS
T5 sequence (P20309 whole entry): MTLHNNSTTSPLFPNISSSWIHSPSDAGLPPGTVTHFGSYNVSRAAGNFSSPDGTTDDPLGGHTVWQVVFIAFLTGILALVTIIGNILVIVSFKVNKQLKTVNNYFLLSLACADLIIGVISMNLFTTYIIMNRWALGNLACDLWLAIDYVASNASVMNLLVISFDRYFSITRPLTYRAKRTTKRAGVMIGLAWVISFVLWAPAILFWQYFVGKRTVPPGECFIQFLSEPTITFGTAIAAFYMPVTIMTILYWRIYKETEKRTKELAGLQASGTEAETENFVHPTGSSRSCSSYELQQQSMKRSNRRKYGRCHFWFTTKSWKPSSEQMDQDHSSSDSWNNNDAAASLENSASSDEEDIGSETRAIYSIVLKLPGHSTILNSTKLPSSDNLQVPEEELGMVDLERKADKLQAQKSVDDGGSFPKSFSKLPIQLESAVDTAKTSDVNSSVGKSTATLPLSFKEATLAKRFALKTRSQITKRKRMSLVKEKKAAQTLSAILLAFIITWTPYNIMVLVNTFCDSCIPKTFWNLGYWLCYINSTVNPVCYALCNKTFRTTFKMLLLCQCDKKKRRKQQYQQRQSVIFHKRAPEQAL
Norepinephrine Transporter, sequence (P23975 whole entry, species assumed): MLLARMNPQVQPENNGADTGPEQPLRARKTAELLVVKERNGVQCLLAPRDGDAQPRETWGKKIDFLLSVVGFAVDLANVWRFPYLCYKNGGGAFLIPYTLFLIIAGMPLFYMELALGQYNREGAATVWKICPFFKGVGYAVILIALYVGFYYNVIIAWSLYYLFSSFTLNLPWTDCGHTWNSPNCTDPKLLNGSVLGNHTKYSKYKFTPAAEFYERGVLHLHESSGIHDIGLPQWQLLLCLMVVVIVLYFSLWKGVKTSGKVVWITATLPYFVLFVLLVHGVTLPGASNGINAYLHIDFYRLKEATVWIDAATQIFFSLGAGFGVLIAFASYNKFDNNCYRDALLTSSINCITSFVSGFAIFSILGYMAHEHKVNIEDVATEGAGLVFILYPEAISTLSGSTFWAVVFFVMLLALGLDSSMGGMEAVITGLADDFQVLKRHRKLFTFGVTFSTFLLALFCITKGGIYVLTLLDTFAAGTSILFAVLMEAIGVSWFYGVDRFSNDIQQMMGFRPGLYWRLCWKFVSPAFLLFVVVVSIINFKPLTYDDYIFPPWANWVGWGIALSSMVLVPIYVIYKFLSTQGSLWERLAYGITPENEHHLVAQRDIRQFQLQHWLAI

For the molecule `O=C(O)CCN1CCC(=C2c3ccccc3COc3ccccc32)CC1` [Compound 8a], the “Percent Inhibition, Histamine, H2” value at Histamine, H2 was found to be 33.4%. For the same molecule, in the data set on male Wistar rats (30 mg/kg PO at CT-18), the “Average Bout-Length” value was 12.2 min, the “Maximum Bout Length” value turned out to be 28.9 min, the “NREM Accum.” value is 65.8 min and the “NREM Peak (%/hr)” value amounted to 75.5 %/hr. Also, in the data set on male Wistar rats (30 mg/kg PO at CT-18), the “Onset” value came to 65 min. Besides, in data set [1], the “Percent Inhibition, Norepinephrine Transporter” value is reported as −3.9%. Besides, in [2] (1.0E−6), the “Percent Inhibition, Muscarinic, M1 (Human Recombinant)” value was 3.3%. Also, in [3], the “Percent Inhibition, HERG” value turned out to be 4%.
For `CN(C)CCC=C1c2ccccc2COc2ccccc21` [Doxepin, doxepin HCl, reference compound], the “Percent Inhibition, Muscarinic, M2 (Human Recombinant)” value in [4] (1.0E−6) was 74.0%. Moreover, the “Percent Inhibition, Histamine, H2” value on Histamine, H2 was 74.7%. Further, the “Percent Inhibition, HERG” value in data set [3] is on record as 23%**.
Regarding `O[Si](CCCN1CCCCC1)(c1ccccc1)C1CCCCC1` (stereo not shown) [HHSID], the Ki in [5] is 281 nM.
`CCN(CC)CC1CCCCN1CC(=O)N1c2ccccc2C(=O)Nc2cccnc21` (stereo not shown) [AF-DX 116]: in data set [6], the Ki is 63 nM.
`C[N+]1(C)CCC(OC(=O)C(c2ccccc2)c2ccccc2)CC1` [4-DAMP methiodide]: the results for the Ki in [5] and in data set [7] were 37.5 nM and 0.27 nM, respectively.
Turning to `CC(C)(CN1CCC(N2c3ccccc3Sc3ccccc32)CC1)C(=O)O.Cl` [Compound UU1], in [4], the Ki is greater than 10000 nM. Further, the Ki in data set [8] is < 500 nM and 13.6 nM. Also, the Ki in data set [9] is greater than 10000 nM. Also, in the data set on male Wistar rats, the “sleep continuity, as assessed by sleep bout length” value is given as “increased sleep continuity”; the “total sleep time post-treatment” value is on record as “significantly increased total sleep time”; the “body temperature adverse effects” value is reported as “no evidence of causing disproportional locomotor inhibition or body temperature adverse effects”; the disproportional locomotor inhibition entry is “no evidence of causing disproportional locomotor inhibition or body temperature adverse effects”. In the data set with male Wistar rats (adjusted using a baseline value at least 24 hours prior, functional criteria list), the “net longest sleep bout post treatment” value is listed as “greater than or equal to 3 minutes”. Further, in the data set with male Wistar rats (at absolute peak, functional criteria list), the average sleep bout result is “greater than 5 minutes”. In addition, the “nonREM peak time value” in the data set on male Wistar rats (by the third hour after administration, functional criteria list) is “greater than 55 % nonREM sleep per hour”. Also, in the data set with male Wistar rats (doses that produce maximum sleep consolidation, functional criteria list), the “cumulative total increase in nonREM sleep” value was “not less than 20 minutes”. For the same molecule, in the data set with male Wistar rats (functional criteria list), the REM sleep inhibition entry is reported as “does not appreciably inhibit REM sleep”, the “locomotor activity inhibition relative to the normal effects of sleep” value is on record as “does not disproportionately inhibit locomotor activity”, the longest sleep bout entry is listed as “greater than 13 minutes” and the rebound insomnia result is reported as “does not produce appreciable amounts of rebound insomnia”. Also, in data set [2], the Ki was greater than 10000 nM.
As to `CC(C)(CN1CCN(C2=Nc3cc(Cl)ccc3Nc3ccccc32)CC1)C(=O)O` [Compound SS2], the Ki in [4] was greater than 10000 nM. The Ki in [8] was 23.4 nM. Besides, the Ki in data set [9] was greater than 10000 nM. For the same molecule, in the data set on male Wistar rats, the “sleep continuity, as assessed by sleep bout length” value is “increased sleep continuity”; the “total sleep time post-treatment” value was “significantly increased total sleep time”; the “body temperature adverse effects” value is reported as “no evidence of causing disproportional locomotor inhibition or body temperature adverse effects”; the disproportional locomotor inhibition result was “no evidence of causing disproportional locomotor inhibition or body temperature adverse effects”. For the same molecule, the Ki in [2] is greater than 10000 nM.

(Values after patent US7355042B2, “Treatment of CNS disorders using CNS target modulators” (Hypnion, Inc., priority 2001, dated 2008).)
